Source: patent US9994547B2, “Heteroarylamide inhibitors of TBK1” (Takeda Pharmaceutical Company Limited, priority 2014, dated 2018)

Biological target: Full length human TBK1 (Homo sapiens (Human), UniProt Q9UHD2)
Assay: Inhibition of TBK1 Enzyme (Example A)
Format: biochemical
Conditions: -log(IC50), IC50 molar; 3 nM TBK1, 25 μM ATP, 60 min RT
Method: Full length human TBK1 with an N-terminal His-tag was cloned into the pFastBacl vector and was transfected into Sf9 cells. 72 hours later the virus was harvested and amplified through two additional rounds of infections. Then 400 mL of the resulting virus stock was used to infect 10 L of Sf9 cells at a density of 2×10^6 cells/mL. Cell pellets were harvested 48 hours post infection and were lysed by freeze-thaw, homogenization and sonication in binding buffer (25 mM Tris pH7.6, 1 M NaCl, 10 mM imidazole, 0.5 mM TCEP) plus 0.1% Triton X-100 and complete protease inhibitor cocktail. The lysate was spun and the supernatant was purified with a HisTrap FF crude and a Superdex 200 pg column.
TBK1 inhibition is determined using a 384 well plate format in buffer containing 20 mM Hepes, pH 7.4, 10 mM MgCl2, 1 mM EDTA, 0.01% Brij-L23, 1 mM DTT. Each test compound is prepared in DMSO using 2.5-fold serial dilutions for 11 data points, which are added to the buffer so that each dilution contains 1% DMSO. To each well is added 2 μL of 1 μM 5FAM-DRHDSGLDSMKDE-NH2 (in buffer), 2 μL of diluted test compound (1% DMSO in buffer), and 5 μL of 3 nM TBK1 and 25 μM ATP (in buffer). The reaction mixture is incubated at RT for 60 min, and quenched by adding 20 mM Hepes, pH 7.4, 10 mM MgCl2, 1 mM EDTA, 0.01% Brij-L23, 1 mM DTT+25 mM EDTA. To quantify the fluorescent-labeled substrate and product following reaction, the test plate is loaded on a Caliper LC-3000, which measures percent of conversion by microfluidic-based separation. Corresponding IC50 values are calculated by non-linear curve fitting of the compound concentrations and percent of inhibition to the standard IC50 equation and reported as pIC50, i.e., −log(IC50), where IC50 is the molar concentration.

Full length human TBK1, sequence (Q9UHD2 whole entry): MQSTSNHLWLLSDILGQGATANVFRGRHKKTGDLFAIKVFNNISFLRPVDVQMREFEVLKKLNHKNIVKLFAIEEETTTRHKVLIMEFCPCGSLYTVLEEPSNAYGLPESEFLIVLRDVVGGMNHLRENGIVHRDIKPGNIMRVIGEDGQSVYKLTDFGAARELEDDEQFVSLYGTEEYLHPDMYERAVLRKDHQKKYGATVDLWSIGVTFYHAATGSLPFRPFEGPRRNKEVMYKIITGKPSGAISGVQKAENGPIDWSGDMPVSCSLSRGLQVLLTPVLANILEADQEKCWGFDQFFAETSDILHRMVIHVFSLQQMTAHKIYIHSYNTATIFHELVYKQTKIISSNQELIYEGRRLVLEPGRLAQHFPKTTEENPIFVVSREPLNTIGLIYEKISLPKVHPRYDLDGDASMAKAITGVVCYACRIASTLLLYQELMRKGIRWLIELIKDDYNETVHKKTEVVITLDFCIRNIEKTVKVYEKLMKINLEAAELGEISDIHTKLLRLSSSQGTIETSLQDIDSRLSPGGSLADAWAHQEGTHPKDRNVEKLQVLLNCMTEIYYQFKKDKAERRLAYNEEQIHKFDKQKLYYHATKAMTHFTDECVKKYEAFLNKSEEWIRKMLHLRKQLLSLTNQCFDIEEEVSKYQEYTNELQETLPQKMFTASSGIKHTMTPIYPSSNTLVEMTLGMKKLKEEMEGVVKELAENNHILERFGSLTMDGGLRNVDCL

Row | Structure (SMILES) | TBK1 Inhibition (pIC50)
1 | C[C@@H](Nc1cc(-c2cnc(NC(=O)C3CC3)cn2)ccc1C#N)C(=O)N(C)C [Example 2, (R)-N-(5-(4-cyano-3-((1-(dimethylamino)-1-oxopropan-2-yl)amino)phenyl)pyrazin-2-yl)cyclopropanecarboxamide] | 7.1
2 | CC(Nc1cc(-c2cnc(NC(=O)C3CC3)cn2)ccc1C#N)C(=O)N(C)C (centres unmarked) [Example 3, N-(5-(4-cyano-3-((1-(dimethylamino)-1-oxopropan-2-yl)amino)phenyl)pyrazin-2-yl)cyclopropanecarboxamide] | 7.9
3 | CC1CC1C(=O)Nc1cnc(-c2ccc(C#N)c(NCC(=O)N(C)C)c2)cn1 (centres unmarked) [Example 4, N-(5-(4-cyano-3-((2-(dimethylamino)-2-oxoethyl)amino)phenyl)pyrazin-2-yl)-2-methylcyclopropanecarboxamide] | 7.1
4 | CC(C)C(Nc1cc(-c2cnc(NC(=O)C3CC3)cn2)ccc1C#N)C(=O)N(C)C (centres unmarked) [Example 5, N-(5-(4-cyano-3-((1-(dimethylamino)-3-methyl-1-oxobutan-2-yl)amino)phenyl)pyrazin-2-yl)cyclopropanecarboxamide] | 7.3
5 | CCC(Nc1cc(-c2cnc(NC(=O)C3CC3)cn2)ccc1C#N)C(=O)N(C)C (centres unmarked) [Example 6, N-(5-(4-cyano-3-((1-(dimethylamino)-1-oxobutan-2-yl)amino)phenyl)pyrazin-2-yl)cyclopropanecarboxamide] | 8.1
6 | COCC[C@H](Nc1cc(-c2cnc(NC(=O)C3CC3)cn2)ccc1C#N)C(=O)N(C)C [Example 7, (S)-N-(5-(4-cyano-3-((1-(dimethylamino)-4-methoxy-1-oxobutan-2-yl)amino)phenyl)pyrazin-2-yl)cyclopropanecarboxamide] | 8.2
7 | CN(C)C(=O)C(CC(F)F)Nc1cc(-c2cnc(NC(=O)C3CC3)cn2)ccc1C#N (centres unmarked) [Example 8, N-(5-(4-cyano-3-((1-(dimethylamino)-4,4-difluoro-1-oxobutan-2-yl)amino)phenyl)pyrazin-2-yl)cyclopropanecarboxamide] | 8.1
8 | C[C@H](Nc1cc(-c2cnc(NC(=O)C3CC3)cn2)ccc1C#N)C(=O)N1CCC1 [Example 9, (S)-N-(5-(3-((1-(azetidin-1-yl)-1-oxopropan-2-yl)amino)-4-cyanophenyl)pyrazin-2-yl)cyclopropanecarboxamide] | 6.7
9 | C[C@H](Nc1cc(-c2cnc(NC(=O)C3CC3)cn2)ccc1C#N)C(=O)N1CCCC1 [Example 10, (S)-N-(5-(4-cyano-3-((1-oxo-1-(pyrrolidin-1-yl)propan-2-yl)amino)phenyl)pyrazin-2-yl)cyclopropanecarboxamide] | 7.3
10 | C[C@H](Nc1cc(-c2cnc(NC(=O)C3CC3)cn2)ccc1C#N)C(=O)N1CC(O)C1 [Example 11, (S)-N-(5-(4-cyano-3-((1-(3-hydroxyazetidin-1-yl)-1-oxopropan-2-yl)amino)phenyl)pyrazin-2-yl)cyclopropanecarboxamide] | 6.7
11 | CCN(C)C(=O)[C@H](C)Nc1cc(-c2cnc(NC(=O)C3CC3)cn2)ccc1C#N [Example 12, (S)-N-(5-(4-cyano-3-((1-(ethyl(methyl)amino)-1-oxopropan-2-yl)amino)phenyl)pyrazin-2-yl)cyclopropanecarboxamide] | 8.0
12 | C[C@H](Nc1cc(-c2cnc(NC(=O)C3CC3)cn2)ccc1C#N)C(=O)NCCO [Example 13, (S)-N-(5-(4-cyano-3-((1-((2-hydroxyethyl)amino)-1-oxopropan-2-yl)amino)phenyl)pyrazin-2-yl)cyclopropanecarboxamide] | 6.3
13 | CC(C)NC(=O)[C@H](C)Nc1cc(-c2cnc(NC(=O)C3CC3)cn2)ccc1C#N [Example 14, (S)-N-(5-(4-cyano-3-((1-(isopropylamino)-1-oxopropan-2-yl)amino)phenyl)pyrazin-2-yl)cyclopropanecarboxamide] | 6.9
14 | COCCNC(=O)[C@H](C)Nc1cc(-c2cnc(NC(=O)C3CC3)cn2)ccc1C#N [Example 15, (S)-N-(5-(4-cyano-3-((1-((2-methoxyethyl)amino)-1-oxopropan-2-yl)amino)phenyl)pyrazin-2-yl)cyclopropanecarboxamide] | 5.8
15 | COC1CN(C(=O)[C@H](C)Nc2cc(-c3cnc(NC(=O)C4CC4)cn3)ccc2C#N)C1 [Example 16, (S)-N-(5-(4-cyano-3-((1-(3-methoxyazetidin-1-yl)-1-oxopropan-2-yl)amino)phenyl)pyrazin-2-yl)cyclopropanecarboxamide] | 6.3
16 | COCCN(C)C(=O)[C@H](C)Nc1cc(-c2cnc(NC(=O)C3CC3)cn2)ccc1C#N [Example 17, (S)-N-(5-(4-cyano-3-((1-((2-methoxyethyl)(methyl)amino)-1-oxopropan-2-yl)amino)phenyl)pyrazin-2-yl)cyclopropanecarboxamide] | 7.1
17 | CN(C)C(=O)C(CO)Nc1cc(-c2cnc(NC(=O)C3CC3)cn2)ccc1C#N (centres unmarked) [Example 18, N-(5-(4-cyano-3-((1-(dimethylamino)-3-hydroxy-1-oxopropan-2-yl)amino)phenyl)pyrazin-2-yl)cyclopropanecarboxamide] | 7.5
18 | C[C@H](Nc1cc(-c2cnc(NC(=O)C3CC3)cn2)ccc1C#N)C(=O)N(C)CCO [Example 19, (S)-N-(5-(4-cyano-3-((1-((2-hydroxyethyl)(methyl)amino)-1-oxopropan-2-yl)amino)phenyl)pyrazin-2-yl)cyclopropanecarboxamide] | 7.7
19 | CCN(C)C(=O)CNc1cc(-c2cnc(NC(=O)C3CC3)cn2)ccc1C#N [Example 20, N-(5-(4-cyano-3-((2-(ethyl(methyl)amino)-2-oxoethyl)amino)phenyl)pyrazin-2-yl)cyclopropanecarboxamide] | 7.4
20 | N#Cc1ccc(-c2cnc(NC(=O)C3CC3)cn2)cc1NCC(=O)N1CCC1 [Example 21, N-(5-(3-((2-(azetidin-1-yl)-2-oxoethyl)amino)-4-cyanophenyl)pyrazin-2-yl)cyclopropanecarboxamide] | 6.6
21 | COC1CN(C(=O)CNc2cc(-c3cnc(NC(=O)C4CC4)cn3)ccc2C#N)C1 [Example 22, N-(5-(4-cyano-3-((2-(3-methoxyazetidin-1-yl)-2-oxoethyl)amino)phenyl)pyrazin-2-yl)cyclopropanecarboxamide] | 6.0
22 | CC[C@H](Nc1cc(-c2cnc(NC(=O)C3CC3)cn2)ccc1C#N)C(=O)N(C)C [Example 23, (S)-N-(5-(4-cyano-3-((1-(dimethylamino)-1-oxobutan-2-yl)amino)phenyl)pyrazin-2-yl)cyclopropanecarboxamide] | 7.7
23 | N#Cc1ccc(-c2cnc(NC(=O)C3CC3)cn2)cc1NCC(=O)N1CC(F)(F)C1 [Example 24, N-(5-(4-cyano-3-((2-(3,3-difluoroazetidin-1-yl)-2-oxoethyl)amino)phenyl)pyrazin-2-yl)cyclopropanecarboxamide] | 6.8
24 | CN(C(=O)CNc1cc(-c2cnc(NC(=O)C3CC3)cn2)ccc1C#N)C1CC1 [Example 25, N-(5-(4-cyano-3-((2-(cyclopropyl(methyl)amino)-2-oxoethyl)amino)phenyl)pyrazin-2-yl)cyclopropanecarboxamide] | 7.4
25 | CC[C@@H](Nc1cc(-c2cnc(NC(=O)C3CC3)cn2)ccc1C#N)C(=O)N(C)C [Example 26, (R)-N-(5-(4-cyano-3-((1-(dimethylamino)-1-oxobutan-2-yl)amino)phenyl)pyrazin-2-yl)cyclopropanecarboxamide] | 8.5
26 | N#Cc1ccc(-c2cnc(NC(=O)C3CC3)cn2)cc1NCC(=O)N1CCC(O)C1 (centres unmarked) [Example 27, N-(5-(4-cyano-3-((2-(3-hydroxypyrrolidin-1-yl)-2-oxoethyl)amino)phenyl)pyrazin-2-yl)cyclopropanecarboxamide] | 6.9
27 | CN(C)C(=O)C(CCO)Nc1cc(-c2cnc(NC(=O)C3CC3)cn2)ccc1C#N (centres unmarked) [Example 28, N-(5-(4-cyano-3-((1-(dimethylamino)-4-hydroxy-1-oxobutan-2-yl)amino)phenyl)pyrazin-2-yl)cyclopropanecarboxamide] | 6.9
28 | CCC(Nc1cc(-c2cnc(NC(=O)C3CC3)cn2)ccc1C#N)C(=O)N(C)CCO (centres unmarked) [Example 29, N-(5-(4-cyano-3-((1-((2-hydroxyethyl)(methyl)amino)-1-oxobutan-2-yl)amino)phenyl)pyrazin-2-yl)cyclopropanecarboxamide] | 7.8
29 | C[C@@H](Nc1cc(-c2cnc(NC(=O)C3CC3)cn2)cnc1C#N)C(=O)N(C)C [Example 30, (R)-N-(5-(6-cyano-5-((1-(dimethylamino)-1-oxopropan-2-yl)amino)pyridin-3-yl)pyrazin-2-yl)cyclopropanecarboxamide] | 5.8
